Measured values: patent US20140343017A1, “PYRROLE COMPOUND” (Kabushiki Kaisha Yakult Honsha, priority 2012, published 2014)

Test system: PTX-resistant H460/PV2-7 cells
Assay: Inhibitory effect on growth of PTX-resistant tumor cell line highly expressing TUBB3 (in vitro)
Format: cell-based, human
Conditions: for Resistance rate: H460/PV2-7 versus parent line H460; for IC50: Homo sapiens, NCI-H460, H460/PV2-7 cells, 96 hours culture, WST-8

| Compound | Resistance rate | IC50 | Resistance rate (listed as PTX) |
| --- | --- | --- | --- |
| Cc1c(-c2nnn(CCO)n2)[nH]c(C(C)O)c1C(=O)c1cccc(Br)c1 (stereo not shown) [Compound 123, (3-bromophenyl)(2-(1-hydroxyethyl)-5-(2-(2-hydroxyethyl)-2H-tetrazol-5-yl)-4-methyl-1H-pyrrol-3-yl)methanone] | 0.31 | 21 nM |  |
| CC(=O)O[C@H]1C(=O)[C@@]2(C)[C@H]([C@H](OC(=O)c3ccccc3)[C@]3(O)C[C@H](OC(=O)[C@H](O)[C@@H](NC(=O)c4ccccc4)c4ccccc4)C(C)=C1C3(C)C)[C@]1(OC(C)=O)CO[C@@H]1C[C@@H]2O [Paclitaxel, paclitaxel, reference compound] | 4.6 | 16.5 nM | approximately 4.6 |
| CC(=O)O[C@@]12CO[C@@H]1C[C@H](O)[C@@]1(C)C(=O)[C@H](O)C3=C(C)[C@@H](OC(=O)[C@H](O)[C@@H](NC(=O)OC(C)(C)C)c4ccccc4)C[C@@](O)([C@@H](OC(=O)c4ccccc4)[C@H]21)C3(C)C [Docetaxel, docetaxel] | 2.6 | 4 nM |  |
| CO[C@H]1C(=O)[C@]2(C)[C@@H](OC)C[C@H]3OC[C@@]3(OC(C)=O)[C@H]2[C@H](OC(=O)c2ccccc2)[C@]2(O)C[C@H](OC(=O)[C@H](O)[C@@H](NC(=O)OC(C)(C)C)c3ccccc3)C(C)=C1C2(C)C [Cabazitaxel, cabazitaxel] | 3.2 | 4 nM |  |
| CNC(=O)c1[nH]c(-c2nnn(CCO)n2)c(C)c1C(=O)c1cccc(Br)c1 [Compound 142, 3-(3-bromobenzoyl)-5-(2-(2-hydroxyethyl)-2H-tetrazol-5-yl)-N,4-dimethyl-1H-pyrrole-2-carboxamide] | 0.29 | 108 nM |  |
| Cc1c(-c2nnn(CCO)n2)[nH]c(CO)c1C(=O)c1cccc(Br)c1 [Compound 121, (3-bromophenyl)(5-(2-(2-hydroxyethyl)-2H-tetrazol-5-yl)-2-(hydroxymethyl)-4-methyl-1H-pyrrol-3-yl)methanone] | 0.27 | 20.6 nM |  |
